According to ChEMBL document CHEMBL1201862, “PubChem BioAssay data set” (2004):
The source made the active and inactive calls.

Tests used:
[1] = molecular target: CAAX prenyl protease 2 (Homo sapiens, UniProt Q9Y256); experiment: human Rce1 protease inhibitors, dose response, biochemical, yeast membranes, quenched-peptide fluorescence, cherry-pick (AID 588849)
[2] = molecular target: Keap1/Nrf2 (Homo sapiens, UniProt Q14145); experiment: Keap1-Nrf2 protein-protein interaction inhibitors, dose response, biochemical, fluorescence polarization, cherry-picked samples (AID 588683)
Sequence of Keap1/Nrf2 (Q16236 whole entry): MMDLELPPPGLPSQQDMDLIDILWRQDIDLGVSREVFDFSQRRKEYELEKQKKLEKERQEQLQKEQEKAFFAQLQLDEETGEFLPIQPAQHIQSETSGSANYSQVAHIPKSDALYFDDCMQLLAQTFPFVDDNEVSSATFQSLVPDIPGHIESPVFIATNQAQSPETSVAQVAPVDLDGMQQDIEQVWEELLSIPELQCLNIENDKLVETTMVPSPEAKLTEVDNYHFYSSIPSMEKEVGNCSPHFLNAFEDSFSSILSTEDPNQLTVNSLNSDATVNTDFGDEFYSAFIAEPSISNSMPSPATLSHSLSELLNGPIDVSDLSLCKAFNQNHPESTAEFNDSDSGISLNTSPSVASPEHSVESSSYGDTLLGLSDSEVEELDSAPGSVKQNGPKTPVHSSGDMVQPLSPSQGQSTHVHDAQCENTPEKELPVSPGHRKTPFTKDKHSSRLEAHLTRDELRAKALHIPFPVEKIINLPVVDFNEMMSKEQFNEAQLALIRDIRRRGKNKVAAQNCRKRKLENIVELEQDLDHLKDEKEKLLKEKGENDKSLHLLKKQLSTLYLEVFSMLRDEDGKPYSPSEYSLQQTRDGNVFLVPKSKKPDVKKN
Sequence of Keap1/Nrf2 (Q14145 whole entry): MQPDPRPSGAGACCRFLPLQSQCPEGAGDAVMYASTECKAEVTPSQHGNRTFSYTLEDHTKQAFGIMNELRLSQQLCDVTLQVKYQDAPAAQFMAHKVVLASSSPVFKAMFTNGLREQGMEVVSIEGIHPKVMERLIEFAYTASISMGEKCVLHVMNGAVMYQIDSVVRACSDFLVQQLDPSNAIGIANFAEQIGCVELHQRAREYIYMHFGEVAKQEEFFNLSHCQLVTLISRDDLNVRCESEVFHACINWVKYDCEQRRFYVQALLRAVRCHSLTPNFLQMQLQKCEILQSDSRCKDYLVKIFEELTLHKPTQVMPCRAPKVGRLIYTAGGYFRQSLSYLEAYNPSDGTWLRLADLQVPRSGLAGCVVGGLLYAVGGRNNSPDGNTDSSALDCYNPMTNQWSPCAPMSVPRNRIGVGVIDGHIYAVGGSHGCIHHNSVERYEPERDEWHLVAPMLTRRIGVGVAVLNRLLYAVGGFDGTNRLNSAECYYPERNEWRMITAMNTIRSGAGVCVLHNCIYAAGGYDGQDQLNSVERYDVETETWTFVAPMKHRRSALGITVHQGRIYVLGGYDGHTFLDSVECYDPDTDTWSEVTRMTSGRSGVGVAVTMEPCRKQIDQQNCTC

[3] = Luminescence Cell-Based Dose HTS Response to Identify Inhibitors of 5'UTR Stem-Loop Driven Prion Protein mRNA Translation in H4-C Neuroglioblastoma Cells. [Related pubchem assays (depositor defined):AID1814, AID1827]; type: functional
[4] = Luminescence Cell-Based Dose Response HTS to Identify Activators of 5'UTR Stem-Loop Driven Prion Protein mRNA Translation in H4-C Neuroglioblastoma Cells. [Related pubchem assays: 1829 (Project Summary), 1814 (Primary HTS)]; type: functional
[5] = Luminescence Cell-Based Dose Response HTS to Identify Inhibitors of 5'UTR Stem-Loop Driven Prion Protein mRNA Translation in H4 Neuroglioblastoma Cells. [Related pubchem assays: 1827 (Project Summary), 1813 (Primary HTS)]; type: functional
[6] = molecular target: Troponin, cardiac muscle (Homo sapiens, UniProt P19429+P45379+P63316); experiment: Fluorescence-based biochemical high throughput dose response assay for activators of the calcium sensitivity of cardiac Regulated Thin Filaments (RTF). [Related pubchem assays (depositor defined):AID493008, AID493018, AID504382, AID504383]; type: protein-complex assay
[7] = Luminescence Cell-Based Dose Response HTS to Identify Activators of Luciferase Translation or Activity in H4-C Neuroglioblastoma Cells. [Related pubchem assays: 1829 (Project Summary), 1814 (Primary HTS)]; type: functional
[8] = inhibitors of SNCA 5'UTR-driven reporter translation, confirmation, H4 neuroglioma cells, luminescence (AID 1988); type: functional, cell-based
[9] = molecular target: UDP-galactopyranose mutase (Mycobacterium tuberculosis, UniProt P9WIQ1); experiment: Inhibitors of Mycobacterium tuberculosis UDP-galactopyranose mutase (UGM) enzyme Measured in Biochemical System Using Plate Reader - 2105-02_Inhibitor_Dose_CherryPick_Activity. [Related pubchem assays (depositor defined):AID504439]
Sequence of UDP-galactopyranose mutase (P9WIQ1 whole entry): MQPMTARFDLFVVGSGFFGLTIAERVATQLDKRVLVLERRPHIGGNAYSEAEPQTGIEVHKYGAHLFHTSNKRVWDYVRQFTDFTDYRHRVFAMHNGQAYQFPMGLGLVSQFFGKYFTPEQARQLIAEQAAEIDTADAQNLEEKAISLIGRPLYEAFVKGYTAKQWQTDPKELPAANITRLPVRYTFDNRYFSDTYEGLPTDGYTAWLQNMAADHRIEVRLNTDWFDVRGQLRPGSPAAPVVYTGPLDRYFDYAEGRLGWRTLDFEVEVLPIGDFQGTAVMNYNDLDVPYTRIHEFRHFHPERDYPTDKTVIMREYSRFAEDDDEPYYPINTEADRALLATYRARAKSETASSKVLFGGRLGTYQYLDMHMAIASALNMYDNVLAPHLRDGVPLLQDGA

[10] = inhibitors of firefly luciferase expression or activity, dose response, H4 neuroglioma cells, luminescence (AID 1990); type: functional, cell-based
[11] = Luminescence Cell-Based Dose Response HTS to Identify Inhibitors of Luciferase Translation or Activity in H4-C Neuroglioblastoma Cells. [Related pubchem assays: 1813 (Primary HTS), 1827 (Project Summary)]; type: functional
[12] = molecular target: ORF 73 (Human herpesvirus 8, UniProt O40947); experiment: inhibitors of C-LANA binding to LBS DNA, dose response, biochemical, fluorescence polarization, cherry-picked samples (AID 504725); design: species or system Human gammaherpesvirus 8;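 also: fluorescence polarization of a labeled DNA duplex reporting LANA DNA binding; potency is for inhibitors that block LANA binding to the DNA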
[13] = test system: HeLa; experiment: HeLa cell cytotoxicity, dose response, cytotoxicity control, 24 h, cherry-picked samples (AID 504726); type: functional, cell-based; settings: Homo sapiens;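 also: potency for cytotoxicity as loss of luminescence signal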
[14] = Luminescence Cell-Based Dose Confirmation HTS to Identify Inhibitors of 5'UTR Stem-Loop Driven Alpha-Synuclein mRNA Translation in H4 Neuroglioblastoma Cells. [Related pubchem assays: 1827 (Project Summary), 1813 (Primary HTS)]; type: functional
[15] = Luminescence Cell-Based Dose Retest to Confirm Activators of 5'UTR Stem-Loop Driven Alpha-Synuclein mRNA Translation in H4 Neuroglioblastoma Cells. [Related pubchem assays (depositor defined):AID1813, AID1829]; type: functional
[16] = molecular target: Mu-type opioid receptor (Homo sapiens, UniProt P35372); experiment: Counterscreen for agonists of heterodimerization of the mu 1 (OPRM1) and delta 1 (OPRD1) opioid receptors: Luminescence-based cell-based high throughput dose response assay to identify agonists of OPRM1 homodimerization.; type: functional;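 also: U2OS cells expressing OPRM1 and beta-arrestin as split beta-galactosidase partners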
Sequence of Mu-type opioid receptor (P35372 whole entry): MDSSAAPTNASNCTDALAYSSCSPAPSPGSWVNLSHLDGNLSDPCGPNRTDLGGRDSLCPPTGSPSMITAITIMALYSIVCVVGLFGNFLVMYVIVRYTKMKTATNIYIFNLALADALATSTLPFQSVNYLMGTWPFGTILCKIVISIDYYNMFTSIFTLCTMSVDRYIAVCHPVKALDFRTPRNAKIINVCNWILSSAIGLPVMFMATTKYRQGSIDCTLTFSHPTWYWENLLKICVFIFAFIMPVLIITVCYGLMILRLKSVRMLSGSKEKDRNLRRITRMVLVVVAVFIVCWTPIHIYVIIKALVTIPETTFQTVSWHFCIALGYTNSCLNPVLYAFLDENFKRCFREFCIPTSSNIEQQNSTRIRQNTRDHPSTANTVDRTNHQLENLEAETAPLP

[17] = molecular target: 5-hydroxytryptamine receptor 5A (Homo sapiens, UniProt P47898); experiment: Counterscreen for agonists of OPRM1-OPRD1 heterodimerization: luminescence-based cell-based high throughput dose response assay to identify agonists of 5-hydroxytryptamine (serotonin) 5A receptor (HTR5A). [Related pubchem assays (depositor defined):AID504326, AID504355, AID504692, AID504904, AID504905]; type: functional
[18] = molecular target: T1, Short transient receptor potential channel 4 (Mus musculus, UniProt Q9QUQ5); experiment: mouse TRPC4 channel activators, dose response, cell-based, HEK293 TRPC4/mu-opioid, Fluo-4 calcium (AID 434937); type: functional
T1 sequence (Q9QUQ5 whole entry): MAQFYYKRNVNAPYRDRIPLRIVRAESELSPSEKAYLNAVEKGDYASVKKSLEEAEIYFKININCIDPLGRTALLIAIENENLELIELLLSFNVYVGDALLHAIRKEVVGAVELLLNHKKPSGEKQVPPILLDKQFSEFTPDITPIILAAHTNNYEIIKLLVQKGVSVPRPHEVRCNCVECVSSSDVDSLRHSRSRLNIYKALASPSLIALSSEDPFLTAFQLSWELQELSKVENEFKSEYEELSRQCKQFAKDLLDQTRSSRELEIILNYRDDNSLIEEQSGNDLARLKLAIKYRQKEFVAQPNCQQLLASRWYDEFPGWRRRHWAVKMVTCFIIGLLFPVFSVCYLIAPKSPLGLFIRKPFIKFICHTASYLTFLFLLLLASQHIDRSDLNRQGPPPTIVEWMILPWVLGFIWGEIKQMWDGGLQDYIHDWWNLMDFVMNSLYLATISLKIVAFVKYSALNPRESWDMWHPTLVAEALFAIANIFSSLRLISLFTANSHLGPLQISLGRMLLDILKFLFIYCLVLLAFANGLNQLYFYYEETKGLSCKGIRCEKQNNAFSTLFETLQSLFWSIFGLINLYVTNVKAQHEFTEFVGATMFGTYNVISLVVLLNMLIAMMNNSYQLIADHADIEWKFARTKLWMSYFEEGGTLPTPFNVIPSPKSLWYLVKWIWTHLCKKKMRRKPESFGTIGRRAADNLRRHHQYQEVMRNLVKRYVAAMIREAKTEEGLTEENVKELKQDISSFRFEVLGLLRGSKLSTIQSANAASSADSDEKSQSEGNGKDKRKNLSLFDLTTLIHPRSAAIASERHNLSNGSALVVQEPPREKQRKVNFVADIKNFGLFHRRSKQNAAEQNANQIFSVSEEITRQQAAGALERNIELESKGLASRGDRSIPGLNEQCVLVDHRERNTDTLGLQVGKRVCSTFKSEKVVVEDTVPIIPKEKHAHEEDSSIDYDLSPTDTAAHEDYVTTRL

[19] = molecular target: Delta-type opioid receptor (Homo sapiens, UniProt P41143); experiment: Counterscreen for agonists of heterodimerization of the mu 1 (OPRM1) and delta 1 (OPRD1) opioid receptors: Luminescence-based cell-based high throughput dose response assay to identify agonists of OPRD1 homodimerization. [Related pubchem assays (depositor defined):AID504326, AID504355, AID504692, AID504904, AID504905]; type: functional
[20] = molecular target: Cytochrome P450 2D6 (Homo sapiens, UniProt P10635);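 also: CYP2D6 member of a cytochrome P450 panel assay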
Sequence of Cytochrome P450 2D6 (P10635 whole entry): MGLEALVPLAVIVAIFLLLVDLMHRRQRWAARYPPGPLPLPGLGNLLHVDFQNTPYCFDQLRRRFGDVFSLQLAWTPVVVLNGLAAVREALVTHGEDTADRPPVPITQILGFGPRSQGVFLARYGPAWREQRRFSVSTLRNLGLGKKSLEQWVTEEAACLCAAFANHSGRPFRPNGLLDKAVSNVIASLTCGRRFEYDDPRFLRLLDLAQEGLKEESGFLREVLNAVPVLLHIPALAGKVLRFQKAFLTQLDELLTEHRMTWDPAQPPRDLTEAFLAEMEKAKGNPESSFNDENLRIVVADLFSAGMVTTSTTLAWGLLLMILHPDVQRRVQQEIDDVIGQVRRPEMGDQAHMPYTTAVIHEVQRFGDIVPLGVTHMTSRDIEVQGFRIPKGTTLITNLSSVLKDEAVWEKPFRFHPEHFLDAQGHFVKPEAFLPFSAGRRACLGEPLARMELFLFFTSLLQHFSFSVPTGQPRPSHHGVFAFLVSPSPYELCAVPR

[21] = test system: Escherichia coli; experiment: microbe, parasite or virus in culture
[22] = molecular target: T2, Hexokinase HKDC1 (Homo sapiens, UniProt Q2TB90); experiment: HKDC1 hexokinase inhibitors, SAR follow-up, biochemical, set 2 (AID 588355); type: functional
T2 sequence (Q2TB90 whole entry): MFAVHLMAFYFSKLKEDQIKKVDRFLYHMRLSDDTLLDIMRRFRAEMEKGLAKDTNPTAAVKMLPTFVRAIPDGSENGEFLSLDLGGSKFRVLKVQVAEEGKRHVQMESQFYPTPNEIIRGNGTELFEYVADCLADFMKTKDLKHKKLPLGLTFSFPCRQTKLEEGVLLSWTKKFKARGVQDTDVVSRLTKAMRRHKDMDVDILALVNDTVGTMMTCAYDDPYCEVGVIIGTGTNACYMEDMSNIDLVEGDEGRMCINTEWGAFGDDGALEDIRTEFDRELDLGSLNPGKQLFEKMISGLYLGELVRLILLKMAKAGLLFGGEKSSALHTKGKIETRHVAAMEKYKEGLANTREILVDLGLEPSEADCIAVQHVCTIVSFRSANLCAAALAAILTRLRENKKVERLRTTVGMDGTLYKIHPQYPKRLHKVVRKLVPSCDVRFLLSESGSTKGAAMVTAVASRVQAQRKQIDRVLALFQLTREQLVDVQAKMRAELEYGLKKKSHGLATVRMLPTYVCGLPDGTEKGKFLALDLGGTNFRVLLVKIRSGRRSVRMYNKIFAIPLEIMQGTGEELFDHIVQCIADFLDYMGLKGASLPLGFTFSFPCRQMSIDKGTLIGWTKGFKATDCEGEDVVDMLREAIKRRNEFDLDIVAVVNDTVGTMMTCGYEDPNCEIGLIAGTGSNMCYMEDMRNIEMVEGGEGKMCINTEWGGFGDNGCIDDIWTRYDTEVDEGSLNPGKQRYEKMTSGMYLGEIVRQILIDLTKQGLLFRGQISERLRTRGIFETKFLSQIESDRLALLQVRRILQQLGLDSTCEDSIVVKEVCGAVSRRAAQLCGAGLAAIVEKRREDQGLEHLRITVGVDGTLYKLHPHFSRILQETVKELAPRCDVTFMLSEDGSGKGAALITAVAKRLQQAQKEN

[23] = molecular target: Hexokinase-1 (Homo sapiens, UniProt P19367); experiment: HK1 enzyme inhibition by HKDC1 hits, SAR follow-up, selectivity assay for HKDC1 inhibitor project, biochemical, set 2, resazurin fluorescence coupled readout (AID 588356); type: functional
Sequence of Hexokinase-1 (P19367 whole entry): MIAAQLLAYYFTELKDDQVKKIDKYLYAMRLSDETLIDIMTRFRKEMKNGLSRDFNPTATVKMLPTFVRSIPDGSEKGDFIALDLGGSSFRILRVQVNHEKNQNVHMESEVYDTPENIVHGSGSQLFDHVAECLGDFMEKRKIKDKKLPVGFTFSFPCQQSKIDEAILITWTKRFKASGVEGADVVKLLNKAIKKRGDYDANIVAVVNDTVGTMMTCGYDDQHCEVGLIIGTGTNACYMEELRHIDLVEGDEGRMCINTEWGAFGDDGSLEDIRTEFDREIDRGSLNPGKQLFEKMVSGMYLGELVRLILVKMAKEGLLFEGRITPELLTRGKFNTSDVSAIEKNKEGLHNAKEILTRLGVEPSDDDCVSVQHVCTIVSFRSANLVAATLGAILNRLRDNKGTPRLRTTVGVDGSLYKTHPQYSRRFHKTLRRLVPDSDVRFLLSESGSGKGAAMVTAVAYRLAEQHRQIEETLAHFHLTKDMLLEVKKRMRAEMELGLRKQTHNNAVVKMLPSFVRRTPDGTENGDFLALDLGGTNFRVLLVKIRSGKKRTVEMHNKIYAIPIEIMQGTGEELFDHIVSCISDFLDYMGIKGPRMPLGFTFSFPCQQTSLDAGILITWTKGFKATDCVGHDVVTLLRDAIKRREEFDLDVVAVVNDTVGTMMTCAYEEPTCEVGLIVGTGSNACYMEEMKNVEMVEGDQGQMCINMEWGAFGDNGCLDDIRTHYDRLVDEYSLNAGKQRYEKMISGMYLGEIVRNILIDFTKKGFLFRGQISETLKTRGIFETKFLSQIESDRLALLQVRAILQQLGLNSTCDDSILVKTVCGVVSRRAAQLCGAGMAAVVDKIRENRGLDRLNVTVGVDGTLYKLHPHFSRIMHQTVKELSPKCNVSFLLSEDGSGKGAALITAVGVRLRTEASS

[24] = molecular target: T3, Intestinal-type alkaline phosphatase (Homo sapiens, UniProt P09923); experiment: human intestinal alkaline phosphatase activators, dose response, biochemical, luminescence, uHTS hits (AID 463120); type: functional
T3 sequence (P09923 whole entry): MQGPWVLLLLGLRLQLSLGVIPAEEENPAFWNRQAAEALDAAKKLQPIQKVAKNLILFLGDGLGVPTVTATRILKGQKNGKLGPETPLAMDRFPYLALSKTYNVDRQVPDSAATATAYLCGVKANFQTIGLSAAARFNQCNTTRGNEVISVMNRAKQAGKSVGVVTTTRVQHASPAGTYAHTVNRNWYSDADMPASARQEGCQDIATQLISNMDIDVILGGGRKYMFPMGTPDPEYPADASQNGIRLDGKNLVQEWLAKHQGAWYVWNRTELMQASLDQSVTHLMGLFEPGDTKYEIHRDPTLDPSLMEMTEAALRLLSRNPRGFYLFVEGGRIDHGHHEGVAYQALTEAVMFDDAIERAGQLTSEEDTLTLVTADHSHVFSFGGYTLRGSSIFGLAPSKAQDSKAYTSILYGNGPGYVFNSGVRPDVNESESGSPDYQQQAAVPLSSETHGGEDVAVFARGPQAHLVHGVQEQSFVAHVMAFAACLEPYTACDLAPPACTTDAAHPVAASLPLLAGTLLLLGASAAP

[25] = molecular target: T3, Intestinal-type alkaline phosphatase; experiment: human IAP activators, dose response, biochemical, luminescent, uHTS hits, set 2 (AID 488817); type: functional;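 also: potency of activators that raise enzyme activity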
[26] = molecular target: Intestinal-type alkaline phosphatase (Mus musculus, UniProt P24822); experiment: PubChem AID 488875; type: functional
Sequence of Intestinal-type alkaline phosphatase (Mus musculus, UniProt P24822) (P24822 whole entry): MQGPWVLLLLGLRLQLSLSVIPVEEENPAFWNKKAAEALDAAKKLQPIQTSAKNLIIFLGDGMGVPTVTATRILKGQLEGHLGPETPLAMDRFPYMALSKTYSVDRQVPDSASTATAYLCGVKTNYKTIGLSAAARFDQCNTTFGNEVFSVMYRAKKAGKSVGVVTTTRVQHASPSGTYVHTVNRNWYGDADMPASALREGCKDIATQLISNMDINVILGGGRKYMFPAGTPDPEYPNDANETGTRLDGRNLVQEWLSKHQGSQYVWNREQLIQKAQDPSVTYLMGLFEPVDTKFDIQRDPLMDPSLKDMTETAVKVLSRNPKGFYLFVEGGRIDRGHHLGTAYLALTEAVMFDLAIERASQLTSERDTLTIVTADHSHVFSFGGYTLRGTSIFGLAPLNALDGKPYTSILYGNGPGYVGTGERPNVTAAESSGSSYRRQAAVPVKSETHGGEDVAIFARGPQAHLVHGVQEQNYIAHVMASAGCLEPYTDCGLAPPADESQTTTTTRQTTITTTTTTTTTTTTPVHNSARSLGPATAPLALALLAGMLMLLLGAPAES

[27] = molecular target: T4, Alkaline phosphatase, tissue-nonspecific isozyme (Homo sapiens, UniProt P05186); experiment: TNAP enzyme activators, dose response, selectivity assay for human IAP activator project, biochemical, TNAP isozyme, human IAP uHTS hits (AID 488886); type: functional;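 also: potency of compounds raising TNAP activity as a selectivity check on IAP activators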
T4 sequence (P05186 whole entry): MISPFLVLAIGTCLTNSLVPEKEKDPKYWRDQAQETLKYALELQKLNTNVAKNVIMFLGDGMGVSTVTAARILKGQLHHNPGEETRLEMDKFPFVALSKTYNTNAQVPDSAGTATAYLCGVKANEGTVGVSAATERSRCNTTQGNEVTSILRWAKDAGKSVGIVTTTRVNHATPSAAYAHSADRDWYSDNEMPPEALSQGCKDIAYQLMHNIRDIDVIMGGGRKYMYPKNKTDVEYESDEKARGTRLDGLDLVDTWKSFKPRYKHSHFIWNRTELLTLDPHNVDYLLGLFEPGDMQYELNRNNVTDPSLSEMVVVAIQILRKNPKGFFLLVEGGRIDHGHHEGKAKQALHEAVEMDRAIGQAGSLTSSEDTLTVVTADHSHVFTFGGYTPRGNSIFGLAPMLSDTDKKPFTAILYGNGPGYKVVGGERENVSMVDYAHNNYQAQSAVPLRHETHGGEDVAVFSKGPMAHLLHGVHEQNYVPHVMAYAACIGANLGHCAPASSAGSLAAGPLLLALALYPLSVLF

[28] = Luminescence Cell-Based Dose Retest to Confirm Inhibitors of Cancer Stem Cells. [Related pubchem assays (depositor defined):AID2717, AID2721]; type: functional; settings: Homo sapiens

Sequence of CAAX prenyl protease 2 (Q9Y256 whole entry): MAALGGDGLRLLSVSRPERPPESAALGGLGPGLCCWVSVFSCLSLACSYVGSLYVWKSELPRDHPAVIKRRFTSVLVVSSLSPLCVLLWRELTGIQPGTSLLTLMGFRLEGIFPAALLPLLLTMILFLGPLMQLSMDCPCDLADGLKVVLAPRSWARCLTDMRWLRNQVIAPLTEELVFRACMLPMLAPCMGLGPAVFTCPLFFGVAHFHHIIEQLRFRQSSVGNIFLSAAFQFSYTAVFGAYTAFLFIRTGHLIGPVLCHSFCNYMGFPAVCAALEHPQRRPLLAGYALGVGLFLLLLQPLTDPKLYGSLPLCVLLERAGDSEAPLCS

SMILES: CC(C)C(NC(=O)c1ccco1)C(=O)NCC(c1ccco1)N1CCCCC1 (stereo not drawn)
- AC50 [1]: 48.9 µM (active)

SMILES: O=C(OCCN1C(=O)c2cccc3c(N4CCOCC4)ccc(c23)C1=O)c1ccc(Cl)cc1Cl
- AC50 [2]: 7.59 µM (active)
- EC50 [3]: 0.722 µM (active)
- EC50 [4]: 0.722 µM (inconclusive)
- EC50 [5]: 12 µM (active)
- EC50 [6]: 1.11 µM (active)
- EC50 [7]: 2.14 µM (inconclusive)
- EC50 [8]: 0.331 µM (active)
- AC50 [9]: 5.23 µM (active)
- EC50 [10]: 9.06 µM (inconclusive)
- EC50 [11]: 2.14 µM (active)
- AC50 [12]: 15.5 µM (active)
- AC50 [13]: 16.5 µM (active)
- EC50 [14]: 6.15 µM (active)
- EC50 [15]: 6.15 µM (inconclusive)

SMILES: CCC(=O)OC1(c2cccc(C)c2)CC(C)N(C)CC1C (stereo not drawn)
- EC50 [16]: > 92.5 µM (inactive)
- EC50 [17]: > 92.5 µM (inactive)
- EC50 [18]: 0.335 µM (active)
- EC50 [19]: > 92.5 µM (inactive)

SMILES: Cc1cn([C@H]2C[C@H](O)[C@@H](COC(N)=O)O2)c(=O)[nH]c1=O
- AC50 [20]: inconclusive

SMILES: CN1CCN(C(=S)c2cn(Cc3ccc(Br)cc3)c3ccccc23)CC1
- AC50 [21]: 48.2 µM (active)

SMILES: COc1cc2c(cc1OC)-c1cc(NCCO)nc(=O)n1CC2
- IC50 [22]: > 80 µM (inactive)
- IC50 [23]: > 80 µM (inactive)

SMILES: Cc1ccc(-c2cc(C(=O)N/N=C/c3ccccc3O)[nH]n2)o1
- EC50 [24]: 5.71 µM (active)
- EC50 [25]: 6.54 µM (active)
- EC50 [26]: > 100 µM (inactive)
- EC50 [27]: 3.89 µM (active)
- AC50 [28]: 8.36 µM (active)
